# From the supplement of paper PMC10307832
# Legend:
# Experiment in all cases: relative viability (nuclei count vs DMSO), 5 days (fraction); higher = more cells survive
# Bexarotene + Pictilisib = compound: C=C(c1ccc(C(=O)O)cc1)c1cc2c(cc1C)C(C)(C)CCC2(C)C [Bexarotene] + CS(=O)(=O)N1CCN(Cc2cc3nc(-c4cccc5[nH]ncc45)nc(N4CCOCC4)c3s2)CC1 [Pictilisib] (partner 1 µM)
# Summary of the method: (§1)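 Lung cancer cell lines were pin-tool dosed in 1536-well plates on the day after seeding, with either a lone drug or a fixed anchor-drug dose plus five library-drug doses (not always all listed) in √10 steps. Nuclei were counted on 4× images after 5 days. Relative viability is the ratio of treated-well to vehicle-well nuclei counts, with each value a median of duplicate plates.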
# Bexarotene + Decitabine = compound: C=C(c1ccc(C(=O)O)cc1)c1cc2c(cc1C)C(C)(C)CCC2(C)C [Bexarotene] + Nc1ncn([C@H]2C[C@H](O)[C@@H](CO)O2)c(=O)n1 [Decitabine] (partner 2 µM)
# Summary of the method: as §1
# Bexarotene + Crizotinib = compound: C=C(c1ccc(C(=O)O)cc1)c1cc2c(cc1C)C(C)(C)CCC2(C)C [Bexarotene] + C[C@@H](Oc1cc(-c2cnn(C3CCNCC3)c2)cnc1N)c1c(Cl)ccc(F)c1Cl [Crizotinib] (partner 1 µM)
# Summary of the method: as §1
# Bexarotene + Alpelisib = compound: C=C(c1ccc(C(=O)O)cc1)c1cc2c(cc1C)C(C)(C)CCC2(C)C [Bexarotene] + Cc1nc(NC(=O)N2CCC[C@H]2C(N)=O)sc1-c1ccnc(C(C)(C)C(F)(F)F)c1 [Alpelisib] (partner 2 µM)
# Summary of the method: as §1
# Bexarotene + Phenformin = compound: C=C(c1ccc(C(=O)O)cc1)c1cc2c(cc1C)C(C)(C)CCC2(C)C [Bexarotene] + N=C(N)NC(=N)NCCc1ccccc1 [Phenformin] (partner 250 µM)
# Summary of the method: as §1
# Bexarotene + Lapatinib = compound: C=C(c1ccc(C(=O)O)cc1)c1cc2c(cc1C)C(C)(C)CCC2(C)C [Bexarotene] + CS(=O)(=O)CCNCc1ccc(-c2ccc3ncnc(Nc4ccc(OCc5cccc(F)c5)c(Cl)c4)c3c2)o1 [Lapatinib] (partner 2 µM)
# Summary of the method: as §1
# Bexarotene + Olaparib = compound: C=C(c1ccc(C(=O)O)cc1)c1cc2c(cc1C)C(C)(C)CCC2(C)C [Bexarotene] + O=C(c1cc(Cc2n[nH]c(=O)c3ccccc23)ccc1F)N1CCN(C(=O)C2CC2)CC1 [Olaparib] (partner 8 µM)
# Summary of the method: as §1
# Bexarotene + Navitoclax = compound: C=C(c1ccc(C(=O)O)cc1)c1cc2c(cc1C)C(C)(C)CCC2(C)C [Bexarotene] + CC1(C)CCC(c2ccc(Cl)cc2)=C(CN2CCN(c3ccc(C(=O)NS(=O)(=O)c4ccc(N[C@H](CCN5CCOCC5)CSc5ccccc5)c(S(=O)(=O)C(F)(F)F)c4)cc3)CC2)C1 [Navitoclax] (partner 0.5 µM)
# Summary of the method: as §1
# Bexarotene + Foretinib = compound: C=C(c1ccc(C(=O)O)cc1)c1cc2c(cc1C)C(C)(C)CCC2(C)C [Bexarotene] + COc1cc2c(Oc3ccc(NC(=O)C4(C(=O)Nc5ccc(F)cc5)CC4)cc3F)ccnc2cc1OCCCN1CCOCC1 [Foretinib] (partner 0.25 µM)
# Summary of the method: as §1
# Bexarotene + Linsitinib = compound: C=C(c1ccc(C(=O)O)cc1)c1cc2c(cc1C)C(C)(C)CCC2(C)C [Bexarotene] + C[C@]1(O)C[C@@H](c2nc(-c3ccc4ccc(-c5ccccc5)nc4c3)c3c(N)nccn32)C1 [Linsitinib] (partner 1 µM)
# Summary of the method: as §1
# Bexarotene = compound: C=C(c1ccc(C(=O)O)cc1)c1cc2c(cc1C)C(C)(C)CCC2(C)C [Bexarotene]
# Summary of the method: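 After an overnight hold at 37 °C, lung cancer cell lines in 1536-well plates were pinned with five library-drug doses (not always all listed), each √10 from the next, on vehicle-anchored plates. The cells stayed 5 days without fresh medium, then a one-step fix, permeabilisation and Hoechst stain preceded 4× imaging and MetaXpress nuclear counts. A plate passed only with control CV under 25% and at least one doubling. Viability is the median, over plates, of treated-well nuclei relative to vehicle-well nuclei.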
# Bexarotene + Bortezomib = compound: C=C(c1ccc(C(=O)O)cc1)c1cc2c(cc1C)C(C)(C)CCC2(C)C [Bexarotene] + CC(C)C[C@H](NC(=O)[C@H](Cc1ccccc1)NC(=O)c1cnccn1)B(O)O [Bortezomib] (partner 0.002 µM)
# Summary of the method: as §1
cell line,measurement,setting,value
A549,relative viability,Bexarotene + Pictilisib; first compound 0.08 µM,0.59
same,relative viability,Bexarotene + Pictilisib; first compound 0.253 µM,0.476
same,relative viability,Bexarotene + Pictilisib; first compound 0.8 µM,0.571
same,relative viability,Bexarotene + Pictilisib; first compound 2.53 µM,0.507
same,relative viability,Bexarotene + Pictilisib; first compound 8 µM,0.48
same,relative viability,Bexarotene + Decitabine; first compound 0.08 µM,0.256
same,relative viability,Bexarotene + Decitabine; first compound 0.253 µM,0.291
same,relative viability,Bexarotene + Decitabine; first compound 0.8 µM,0.318
same,relative viability,Bexarotene + Decitabine; first compound 2.53 µM,0.242
same,relative viability,Bexarotene + Decitabine; first compound 8 µM,0.237
same,relative viability,Bexarotene + Crizotinib; first compound 0.08 µM,0.736
same,relative viability,Bexarotene + Crizotinib; first compound 0.253 µM,0.793
same,relative viability,Bexarotene + Crizotinib; first compound 0.8 µM,0.65
same,relative viability,Bexarotene + Crizotinib; first compound 2.53 µM,0.669
same,relative viability,Bexarotene + Crizotinib; first compound 8 µM,0.594
same,relative viability,Bexarotene + Alpelisib; first compound 0.08 µM,0.992
same,relative viability,Bexarotene + Alpelisib; first compound 0.253 µM,0.826
same,relative viability,Bexarotene + Alpelisib; first compound 0.8 µM,0.836
same,relative viability,Bexarotene + Alpelisib; first compound 2.53 µM,0.671
same,relative viability,Bexarotene + Alpelisib; first compound 8 µM,0.686
same,relative viability,Bexarotene + Phenformin; first compound 0.08 µM,0.133
same,relative viability,Bexarotene + Phenformin; first compound 0.253 µM,0.187
same,relative viability,Bexarotene + Phenformin; first compound 0.8 µM,0.157
same,relative viability,Bexarotene + Phenformin; first compound 2.53 µM,0.18
same,relative viability,Bexarotene + Phenformin; first compound 8 µM,0.183
same,relative viability,Bexarotene + Lapatinib; first compound 0.08 µM,0.94
same,relative viability,Bexarotene + Lapatinib; first compound 0.253 µM,1.09
same,relative viability,Bexarotene + Lapatinib; first compound 0.8 µM,0.972
same,relative viability,Bexarotene + Lapatinib; first compound 2.53 µM,0.925
same,relative viability,Bexarotene + Lapatinib; first compound 8 µM,0.798
same,relative viability,Bexarotene + Olaparib; first compound 0.08 µM,0.245
same,relative viability,Bexarotene + Olaparib; first compound 0.253 µM,0.388
same,relative viability,Bexarotene + Olaparib; first compound 0.8 µM,0.35
same,relative viability,Bexarotene + Olaparib; first compound 2.53 µM,0.291
same,relative viability,Bexarotene + Olaparib; first compound 8 µM,0.3
same,relative viability,Bexarotene + Navitoclax; first compound 0.08 µM,1.18
same,relative viability,Bexarotene + Navitoclax; first compound 0.253 µM,1.29
same,relative viability,Bexarotene + Navitoclax; first compound 0.8 µM,1.15
same,relative viability,Bexarotene + Navitoclax; first compound 2.53 µM,0.986
same,relative viability,Bexarotene + Navitoclax; first compound 8 µM,0.938
same,relative viability,Bexarotene + Foretinib; first compound 0.08 µM,1.01
same,relative viability,Bexarotene + Foretinib; first compound 0.253 µM,0.875
same,relative viability,Bexarotene + Foretinib; first compound 0.8 µM,0.856
same,relative viability,Bexarotene + Foretinib; first compound 2.53 µM,0.864
same,relative viability,Bexarotene + Foretinib; first compound 8 µM,0.718
same,relative viability,Bexarotene + Linsitinib; first compound 0.08 µM,0.543
same,relative viability,Bexarotene + Linsitinib; first compound 0.253 µM,0.539
same,relative viability,Bexarotene + Linsitinib; first compound 0.8 µM,0.586
same,relative viability,Bexarotene + Linsitinib; first compound 2.53 µM,0.579
same,relative viability,Bexarotene + Linsitinib; first compound 8 µM,0.451
same,relative viability,Bexarotene; 0.08 µM,1.07
same,relative viability,Bexarotene; 0.253 µM,0.99
same,relative viability,Bexarotene; 0.8 µM,0.964
same,relative viability,Bexarotene; 2.53 µM,0.933
same,relative viability,Bexarotene; 8 µM,0.878
EBC-1,relative viability,Bexarotene + Pictilisib; first compound 0.08 µM,0.395
same,relative viability,Bexarotene + Pictilisib; first compound 0.253 µM,0.481
same,relative viability,Bexarotene + Pictilisib; first compound 0.8 µM,0.476
same,relative viability,Bexarotene + Pictilisib; first compound 2.53 µM,0.474
same,relative viability,Bexarotene + Pictilisib; first compound 8 µM,0.475
same,relative viability,Bexarotene + Crizotinib; first compound 0.08 µM,0.196
same,relative viability,Bexarotene + Crizotinib; first compound 0.253 µM,0.212
same,relative viability,Bexarotene + Crizotinib; first compound 0.8 µM,0.237
same,relative viability,Bexarotene + Crizotinib; first compound 2.53 µM,0.217
same,relative viability,Bexarotene + Crizotinib; first compound 8 µM,0.192
same,relative viability,Bexarotene + Alpelisib; first compound 0.08 µM,1.22
same,relative viability,Bexarotene + Alpelisib; first compound 0.253 µM,0.989
same,relative viability,Bexarotene + Alpelisib; first compound 0.8 µM,0.756
same,relative viability,Bexarotene + Alpelisib; first compound 2.53 µM,0.89
same,relative viability,Bexarotene + Alpelisib; first compound 8 µM,0.868
same,relative viability,Bexarotene + Lapatinib; first compound 0.08 µM,0.231
same,relative viability,Bexarotene + Lapatinib; first compound 0.253 µM,0.232
same,relative viability,Bexarotene + Lapatinib; first compound 0.8 µM,0.22
same,relative viability,Bexarotene + Lapatinib; first compound 2.53 µM,0.192
same,relative viability,Bexarotene + Lapatinib; first compound 8 µM,0.209
same,relative viability,Bexarotene + Bortezomib; first compound 0.08 µM,0.63
same,relative viability,Bexarotene + Bortezomib; first compound 0.253 µM,0.541
same,relative viability,Bexarotene + Bortezomib; first compound 0.8 µM,0.415
same,relative viability,Bexarotene + Bortezomib; first compound 2.53 µM,0.555
same,relative viability,Bexarotene + Bortezomib; first compound 8 µM,0.442
same,relative viability,Bexarotene + Olaparib; first compound 0.08 µM,0.771
same,relative viability,Bexarotene + Olaparib; first compound 0.253 µM,0.713
same,relative viability,Bexarotene + Olaparib; first compound 0.8 µM,0.588
same,relative viability,Bexarotene + Olaparib; first compound 2.53 µM,0.701
same,relative viability,Bexarotene + Olaparib; first compound 8 µM,0.715
same,relative viability,Bexarotene + Navitoclax; first compound 0.08 µM,0.43
same,relative viability,Bexarotene + Navitoclax; first compound 0.253 µM,0.401
same,relative viability,Bexarotene + Navitoclax; first compound 0.8 µM,0.333
same,relative viability,Bexarotene + Navitoclax; first compound 2.53 µM,0.344
same,relative viability,Bexarotene + Navitoclax; first compound 8 µM,0.369
same,relative viability,Bexarotene + Foretinib; first compound 0.08 µM,0.111
same,relative viability,Bexarotene + Foretinib; first compound 0.253 µM,0.124
same,relative viability,Bexarotene + Foretinib; first compound 0.8 µM,0.101
same,relative viability,Bexarotene + Foretinib; first compound 2.53 µM,0.129
same,relative viability,Bexarotene + Foretinib; first compound 8 µM,0.112
same,relative viability,Bexarotene + Linsitinib; first compound 0.08 µM,0.954
same,relative viability,Bexarotene + Linsitinib; first compound 0.253 µM,0.89
same,relative viability,Bexarotene + Linsitinib; first compound 0.8 µM,0.783
same,relative viability,Bexarotene + Linsitinib; first compound 2.53 µM,0.929
same,relative viability,Bexarotene + Linsitinib; first compound 8 µM,1.06
same,relative viability,Bexarotene; 0.08 µM,0.901
same,relative viability,Bexarotene; 0.253 µM,1.03
same,relative viability,Bexarotene; 0.8 µM,0.971
same,relative viability,Bexarotene; 2.53 µM,1.02
same,relative viability,Bexarotene; 8 µM,1.08
